Here are results for one compound from paper PMC9822434, “Estradiol-Based Salicylaldehyde (Thio)Semicarbazones and Their Copper Complexes with Anticancer, Antibacterial and Antioxidant Activities” (Molecules, 2022).

Molecules are shown by their SMILES.

The subject of one data set is E. faecalis ATCC 29212. As to the kind of experiment: MIC determination. The data set is classed as cell-based, Enterococcus faecalis. The conditions noted are these: Gram-positive E. faecalis ATCC 29212; Mueller Hinton Broth. The procedure, abridged: (§1)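 Broth microdilution in Mueller Hinton Broth, two-fold serial dilutions starting at 100 µM compound (from 10 mM stocks in 90% DMSO). Each well inoculated with a 10^−4 dilution of overnight culture. MIC read per prior lab method.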

Data set [1] has as its system A549, MCF-7, MCF-7 KCR and DU-145 cells. Description: γH2AX immunostaining (DNA double-strand breaks). It counts as cell-based, human. The following applies: 20 µM, 3 h. Here is the method: In order to determine the degree of DNA damage induced by the treatments, DNA double-strand breaks were visualized by γH2AX immunostaining. For this, 1 × 10^5 cells/well were seeded onto coverslips in 24-well plates. […] Then, cells were fixed with 4% formaldehyde (Molar Chemicals, Halásztelek, Hungary), permeabilized with 0.3% Triton-X-100 (Calbiochem, Merck Millipore, Darmstadt, Germany) and were blocked using 5% bovine serum albumin (BSA) (Sigma-Aldrich, St. Louis, MO, USA). Then, the samples were incubated with anti-γH2AX antibody (Thermo Fisher Scientific, Waltham, MA, USA) in 1:300 dilution followed by Alexa 488 fluorophore-conjugated goat anti-mouse secondary antibody (Abcam, Cambridge, UK) in 1:600 dilution. The fluorescence intensity of the stained samples was detected by an Olympus FV10i confocal microscope.

The test system of another data set is S. aureus ATCC 25928. As to the kind of experiment: MIC determination. It counts as cell-based, Staphylococcus aureus. The following applies: Gram-positive S. aureus ATCC 25928; Mueller Hinton Broth. The procedure, abridged:
as §1

Data set [2] has as its system MCF-7 breast cancer cell line. On the set-up: method as in doi:10.1039/D0NJ01070G, PMID 34453218, PMID 33951554. The conditions noted are these: cited from earlier work.
For data set [3] the following is noted: cited from earlier work.
The format of data set [4] is physicochemical. The conditions noted are these: cligand = 20 µM. The procedure, abridged:
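UV–vis pH-metric titrations at 25.0 ± 0.1 °C, I = 0.10 M KCl, 30% (v/v) DMSO/H2O under argon; ligand 20 μM, pH 2.0–12.5, alone or with 1 or 0.5 equiv. Cu(II). Spectra 200–800 nm, 2 cm path; pKa, overall stability constants (β) and species spectra fitted with PSEQUAD.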

Another data set relates to A549. Description: MTT cytotoxicity assay. It counts as cell-based, human. The following applies: 24 h incubation time. The method, boiled down:
(§2)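 Cells were exposed 24 h to 0–20 µM (2.5, 5, 10, 15, 20 µM) Cu(II) complexes, ligands or metal salts (equimolar ligand–CuCl2), then 0.5 mg/mL MTT for 1 h at 37 °C. Formazan was dissolved in DMSO and read at 570 nm; viability is relative to untreated control as 100%.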
In general terms: Tetrazolium dyes change colour on reduction, which living cells bring about.

The next data set deals with MCF-7. Description: MTT cytotoxicity assay. The conditions noted are these: MCF-7, MTT, 24 h incubation time. The data set is classed as cell-based, human. The procedure, abridged:
as §2

The next data set has as its system DU-145. Description: MTT cytotoxicity assay. The conditions noted are these: DU-145, MTT, 24 h incubation time. It counts as cell-based, human. The procedure, abridged:
as §2

The test system of a further data set is MCF-7 KCR. Description: MTT cytotoxicity assay. It counts as cell-based, human. The conditions noted are these: 24 h incubation time. The method, boiled down:
as §2

For data set [5] the following is noted: Cu(II) complex (25 µM) with GSH (1.25 mM), pH 7.4, anaerobic; cited from earlier work.
Data set [6] in a line: DPPH free radical scavenging assay. The method, boiled down:
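DPPH at 50 µM final mixed with compound (5–50 µM final) in ethanol at 25.0 ± 0.1 °C in tandem cuvette, read spectrophotometrically. Antioxidant activity percentage, IC50 (concentration reducing 50% of DPPH) and Trolox equivalent capacity derived; Trolox as positive control.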

The mark [7] stands for this setting: 30% (v/v) DMSO/H2O, T = 25.0 °C, I = 0.1 M (KCl).

As usually defined, the MIC is the least concentration at which growth counts as inhibited. In general, IC50 refers to the concentration that inhibits the measured activity by half. For `CC12CCC3c4cc(C=NNC(N)=S)c(O)cc4CCC3C1CCC2=O` (centres unmarked) [estrone-TSC, reference compound], the MIC in the data set on E. faecalis ATCC 29212 and in the data set with S. aureus ATCC 25928 was more than 100 µM throughout. For the same compound, the “DNA double-strand breaks (γH2AX) vs untreated control cells” value in data set [1] was “None of these treatments caused a higher degree of DNA damage”. In addition, the IC50 in data set [2] was 6.4 µM; with A549, 16.7 ± 1.03 µM; in the data set on MCF-7, more than 20 µM; with DU-145, more than 20 µM; in the data set with MCF-7 KCR, more than 20 µM; in data set [6] (in ethanol, T = 25 °C, cDPPH = 50 µM, ccompound = 5−50 µM), 17.8 µM. Besides, the “logβ [CuLH−1]” value in [3] (setting [7]) is listed as 9.44 ^2. In data set [3] (setting [7]), the “logβ [CuL]+” value is listed as 13.18 ^2. The pCu7.4 in data set [3] (pH 7.4, cCu(II) = 20 µM, cligand = 20 µM) is 11.9 ^2. In addition, in data set [4] (calculated at pH 5.0, cCu(II) = 20 µM), the pCu5.0 is given as 7.7. In [4] (estimated at pH 6.0, cCu(II) = 20 µM), the pCu6.0 is reported as 9.2. In addition, in data set [5], the kobs was 0.13 ^3 min^−1. In data set [6] (DPPH assay in ethanol, 25 °C), the “TEAC (Trolox equivalent antioxidant capacity)” value came out at 0.7. For the same compound, the “% Scavenging Effect” value in [6] (DPPH:compound = 1:1 ratio after 30 min, ethanol, 25 °C) is on record as 49.8%.
